Laboratory results as given in ChEMBL document CHEMBL1129627, “Nonlinear quantitative structure-activity relationship for the inhibition of dihydrofolate reductase by pyrimidines” (J Med Chem, 1996).

Molecular target: T1, Dihydrofolate reductase (Escherichia coli, UniProt P0ABQ4)
T1 sequence (P0ABQ4 whole entry): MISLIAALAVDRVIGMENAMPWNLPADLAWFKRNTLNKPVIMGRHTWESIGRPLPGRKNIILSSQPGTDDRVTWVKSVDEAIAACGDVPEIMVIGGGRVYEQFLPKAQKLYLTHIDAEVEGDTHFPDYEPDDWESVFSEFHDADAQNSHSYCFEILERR
Description: Negative logarithm of inhibition constant (-log Ki) against Dihydrofolate reductase in Escherichia coli

Row | SMILES | Ki [nM]
1 | COc1cc(CC2CN=C(N)N=C2N)ccc1Cc1ccccc1 (stereo unspecified) | 29.5
2 | CS(=O)(=O)Oc1cccc(CC2CN=C(N)N=C2N)c1 (stereo unspecified) | 120
3 | Cc1cc(CC2CN=C(N)N=C2N)cc(Cl)c1N (stereo unspecified) | 1.35
4 | NC1=NCC(Cc2cc(I)c(O)c(I)c2)C(N)=N1 (stereo unspecified) | 1.51
5 | COCCCCCCCOc1c(OC)cc(CC2CN=C(N)N=C2N)cc1OC (stereo unspecified) | 63.1
6 | COc1ccc(CC2CN=C(N)N=C2N)cc1OCc1ccccc1 (stereo unspecified) | 21.9
7 | COc1cc(CC2CN=C(N)N=C2N)cc(OC)c1OCc1ccccc1 (stereo unspecified) | 3.8
8 | NC1=NCC(Cc2ccc3c(c2)OCCO3)C(N)=N1 (stereo unspecified) | 74.1
9 | CCCOc1cc(CC2CN=C(N)N=C2N)cc(OCCC)c1 (stereo unspecified) | 38.9
10 | NC1=NCC(Cc2ccc(OCc3ccccc3)cc2)C(N)=N1 (stereo unspecified) | 129
11 | CC(=O)Nc1ccc(CC2CN=C(N)N=C2N)cc1[N+](=O)[O-] (stereo unspecified) | 107
12 | COc1cc(CC2CN=C(N)N=C2N)ccc1OS(C)(=O)=O (stereo unspecified) | 11.5
13 | NC1=NCC(Cc2ccc(OC(F)(F)F)cc2)C(N)=N1 (stereo unspecified) | 269
14 | COc1cc(CC2CN=C(N)N=C2N)cc(OC)c1Br (stereo unspecified) | 6.61
15 | COc1cc(CC2CN=C(N)N=C2N)ccc1O (stereo unspecified) | 28.8

Further compounds by falling Ki, results first:

Row | Ki [nM] | SMILES
16 | 631 | NC1=NCC(Cc2ccc([N+](=O)[O-])cc2)C(N)=N1 (stereo unspecified)
17 | 355 | NC1=NCC(Cc2ccc(O)cc2)C(N)=N1 (stereo unspecified)
18 | 251 | CS(=O)(=O)Oc1ccc(CC2CN=C(N)N=C2N)cc1 (stereo unspecified)
19 | 145 | COc1ccc(CC2CN=C(N)N=C2N)cc1O (stereo unspecified)
20 | 138 | CCCCCCOc1cccc(CC2CN=C(N)N=C2N)c1 (stereo unspecified)
21 | 91.2 | Cc1cc(C)cc(CC2CN=C(N)N=C2N)c1 (stereo unspecified)
22 | 69.2 | COCCCCCCCOc1cc(CC2CN=C(N)N=C2N)ccc1OC (stereo unspecified)
23 | 60.3 | COCCC(=O)c1ccc(CC2CN=C(N)N=C2N)cc1C(=O)CCOC (stereo unspecified)
24 | 27.5 | Cc1cc(CC2CN=C(N)N=C2N)cc(C)c1O (stereo unspecified)
25 | 20.4 | COc1ccc(CC2CN=C(N)N=C2N)cc1C(F)(F)F (stereo unspecified)
26 | 18.2 | COc1c(C)cc(CC2CN=C(N)N=C2N)cc1C (stereo unspecified)
27 | 17 | COCCOc1ccc(CC2CN=C(N)N=C2N)cc1OC (stereo unspecified)
28 | 15.8 | COc1ccc(CC2CN=C(N)N=C2N)cc1OS(C)(=O)=O (stereo unspecified)
29 | 15.1 | CCc1cc(CC2CN=C(N)N=C2N)cc(CC)c1CC (stereo unspecified)
30 | 13.5 | CCCCCCCCOc1c(OC)cc(CC2CN=C(N)N=C2N)cc1OC (stereo unspecified)
31 | 13.5 | CCCCCCOc1c(OC)cc(CC2CN=C(N)N=C2N)cc1OC (stereo unspecified)
32 | 4.47 | COCCc1c(OC)cc(CC2CN=C(N)N=C2N)cc1OC (stereo unspecified)
33 | 2.69 | COc1cc(CC2CN=C(N)N=C2N)cc(OC)c1C (stereo unspecified)
34 | 1.51 | COc1c(I)cc(CC2CN=C(N)N=C2N)cc1I (stereo unspecified)
35 | 1.41 | NC1=NCC(Cc2cc(Br)c(N)c(Br)c2)C(N)=N1 (stereo unspecified)
36 | 1.35 | NC1=NCC(Cc2cc(Cl)c(N)c(Cl)c2)C(N)=N1 (stereo unspecified)
